Key:
HL60 cells = test: Differentiation and apoptosis of HL 60 cells (NBT staining); assay type: cell-based; details: for EC50 (culture day necessary to convert cells into a differentiated or apoptosed phenotype): 1 μM compound, culture up to 9 days, NBT staining
Method: HL 60 cells were evaluated for the effect of retinoic acid and the compound of Example 1 on both differentiation and apoptosis end points by the method described in Molecular and Cellular Biology, 15, 3540-3551 (1995). Cells were grown in culture for times up to 9 days in the presence of 1 μM all-trans retinoic acid (t-RA) or 1 μM compound of Example 1. At the end of each day of the culture period, cells were washed and stained with NBT (nitro blue tetrazolium) and counted.

[1] = system: squamous-cell carcinoma of the head and neck; details: cited from earlier work

Compound	EC50 (culture day necessary to convert cells into a differentiated or apoptosed phenotype) (HL60 cells) [days]	activity in this assay compared with t-RA (in words) (HL60 cells; 1 μM, compared with 1 μM t-RA)	percentage of either differentiated or apoptosed HL60 cells (HL60 cells; 1 μM, day 1) [%]	percentage of either differentiated or apoptosed HL60 cells (HL60 cells; 1 μM, day 2) [%]	percentage of either differentiated or apoptosed HL60 cells (HL60 cells; 1 μM, day 3) [%]	percentage of either differentiated or apoptosed HL60 cells (HL60 cells; 1 μM, day 4) [%]	percentage of either differentiated or apoptosed HL60 cells (HL60 cells; 1 μM, day 5) [%]	percentage of either differentiated or apoptosed HL60 cells (HL60 cells; 1 μM, day 6) [%]	percentage of either differentiated or apoptosed HL60 cells (HL60 cells; 1 μM, day 7) [%]	percentage of either differentiated or apoptosed HL60 cells (HL60 cells; 1 μM, day 8) [%]	percentage of either differentiated or apoptosed HL60 cells (HL60 cells; 1 μM, day 9) [%]	prevention of second primary tumors (in words) [1]
CC1(C)C(=O)C(C)(C)c2cc(C(=O)Nc3ccc(C(=O)O)cc3)ccc21 [Example 1, 4(1',1',3',3'-Tetramethyl-2'-keto-indan-5'-carboxamido)benzoicacid]	4.0	comparable to t-RA	11	22	40	50	61	78	85	95	93	–
CC1=C(/C=C/C(C)=C/C=C/C(C)=C\C(=O)O)C(C)(C)CCC1 [Isotretinoin]	–	–	–	–	–	–	–	–	–	–	–	useful in prevention of second primary tumors
CC1=C(/C=C/C(C)=C/C=C/C(C)=C/C(=O)O)C(C)(C)CCC1 [all-trans retinoic acid]	3.2	–	21	23	48	80	95	96	97	98	97	–

From patent US6008251A, “Retinoid-like compounds” (Bristol-Myers Squibb Company, priority 1998, dated 1999)
